Experimental data: patent US10118930B2, “Piperidinylpyrazolopyrimidinones and their use” (BAYER PHARMA AKTIENGESELLSCHAFT, priority 2015, dated 2018)
Counter-ions that a name gives are not always drawn.

Each compound was assayed on clot lysis (fibrinolysis) in diluted human citrated plasma, tPA-induced (assay: Plasma-based clot lysis assay (5%)). Conditions: human citrated platelet-poor plasma 5%, fibrinogen 3 μM, CaCl2 10 mM, tPA 0.2 nM, 37° C., OD at 405 nm.
Type: biochemical
Method in brief: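 Compounds added to 5% platelet-poor citrated human plasma with 3 μM fibrinogen in 20 mM HEPES, 150 mM NaCl, 0.01% Brij, pH 7. Clotting and lysis started with 10 mM CaCl2 and 0.2 nM tPA at 37° C. IC50 derived by comparing time courses with a blank control reaction.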

Structure (SMILES)	IC50 [nM]
Cc1nn2c(C3CCNCC3)cc(=O)[nH]c2c1-c1nnc(C(C)(C)C)o1 [Example 338, 3-(5-tert-butyl-1,3,4-oxadiazol-2-yl)-2-methyl-7-(piperidin-4-yl)pyrazolo[1,5-a]pyrimidin-5(4H)-one hydrochloride]	11
Cc1noc(-c2c(C)nn3c(C4CCNCC4)cc(=O)[nH]c23)n1 [Example 339, 2-methyl-3-(3-methyl-1,2,4-oxadiazol-5-yl)-7-(piperidin-4-yl)pyrazolo[1,5-a]pyrimidin-5(4H)-one hydrochloride]	28
O=c1cc(C2CCNCC2)n2ncc(CN3CCCC3)c2[nH]1 [Example 343, 7-(piperidin-4-yl)-3-(pyrrolidin-1-ylmethyl)pyrazolo[1,5-a]pyrimidin-5(4H)-one hydrochloride]	130
O=c1cc(C2CCNCC2)n2ncc(C3CC3)c2[nH]1 [Example 344, 3-cyclopropyl-7-(piperidin-4-yl)pyrazolo[1,5-a]pyrimidin-5(4H)-one hydrochloride]	120
O=c1cc(C2CCNCC2)n2ncc(CN3CCS(=O)(=O)CC3)c2[nH]1 [Example 345, 3-[(1,1-dioxidothiomorpholin-4-yl)methyl]-7-(piperidin-4-yl)pyrazolo[1,5-a]pyrimidin-5 (4H)-one hydrochloride]	120
CC(C)(C)C[C@@H]1C[C@H](c2cc(=O)[nH]c3c(-c4nc(-c5ccccc5F)no4)cnn23)CCN1 [Example 349, 7-[(2S,4R)-2-(2,2-dimethylpropyl)piperidin-4-yl]-3-[3-(2-fluorophenyl)-1,2,4-oxadiazol-5-yl]pyrazolo[1,5-a]pyrimidin-5(4H)-one hydrochloride]	21
Cc1nn2c(C3CCNCC3)cc(=O)[nH]c2c1-c1nc(C2CCCCC2)no1 [Example 350, 3-(3-cyclohexyl-1,2,4-oxadiazol-5-yl)-2-methyl-7-(piperidin-4-yl)pyrazolo[1,5-a]pyrimidin-5(4H)-one hydrochloride]	20
O=C(OCCCF)c1cnn2c(C3CCNCC3)cc(=O)[nH]c12 [Example 352, 3-fluoropropyl 5-oxo-7-(piperidin-4-yl)-4,5-dihydropyrazolo[1,5-a]pyrimidine-3-carboxylate hydrochloride]	44
O=C(OC1CCC1)c1cnn2c(C3CCNCC3)cc(=O)[nH]c12 [Example 356, Cyclobutyl 5-oxo-7-(piperidin-4-yl)-4,5-dihydropyrazolo[1,5-a]pyrimidine-3-carboxylate hydrochloride]	23
O=C(c1cnn2c(C3CCNCC3)cc(=O)[nH]c12)N1CCC12CCOCC2 [Example 359, 3-(7-oxa-1-azaspiro[3.5]non-1-ylcarbonyl)-7-(piperidin-4-yl)pyrazolo[1,5-a]pyrimidin-5(4H)-one trifluoroacetate]	120
C[C@@H](c1ccccc1)N(C)C(=O)c1cnn2c(C3CCNCC3)cc(=O)[nH]c12 [Example 360, N-methyl-5-oxo-N-[(1S)-1-phenylethyl]-7-(piperidin-4-yl)-4,5-dihydropyrazolo[1,5-a]pyrimidine-3-carboxamide hydrochloride]	52
CN(Cc1ccccn1)C(=O)c1cnn2c(C3CCNCC3)cc(=O)[nH]c12 [Example 361, N-methyl-5-oxo-7-(piperidin-4-yl)-N-(pyridin-2-ylmethyl)-4,5-dihydropyrazolo[1,5-a]pyrimidine-3-carboxamide hydrochloride]	32
CCCOC(=O)c1c(C)nn2c(C3CCNCC3)cc(=O)[nH]c12 [Example 365, Propyl 2-methyl-5-oxo-7-(piperidin-4-yl)-4,5-dihydropyrazolo[1,5-a]pyrimidine-3-carboxylate hydrochloride]	38
Cc1nn2c(C3CCNCC3)cc(=O)[nH]c2c1C(=O)OC(C)C [Example 366, Propan-2-yl 2-methyl-5-oxo-7-(piperidin-4-yl)-4,5-dihydropyrazolo[1,5-a]pyrimidine-3-carboxylate hydrochloride]	27
CC(=O)c1cnn2c(C3CCNCC3)cc(=O)[nH]c12 [Example 370, 3-acetyl-7-(piperidin-4-yl)pyrazolo[1,5-a]pyrimidin-5(4H)-one hydrochloride]	36
N#Cc1c(Br)nn2c(C3CCNCC3)cc(=O)[nH]c12 [Example 374, 2-bromo-5-oxo-7-(piperidin-4-yl)-4,5-dihydropyrazolo[1,5-a]pyrimidine-3-carbonitrile hydrochloride]	34

Results, then the compound that gave them:

IC50 [nM]	Structure (SMILES)
34	Cc1nn2c(C3CCNCC3)cc(=O)[nH]c2c1-c1nc(C(F)(F)F)no1 [Example 341, 2-methyl-7-(piperidin-4-yl)-3-[3-(trifluoromethyl)-1,2,4-oxadiazol-5-yl]pyrazolo[1,5-a]pyrimidin-5(4H)-one hydrochloride]
170	CN(C)Cc1cnn2c(C3CCNCC3)cc(=O)[nH]c12 [Example 342, 3-[(dimethylamino)methyl]-7-(piperidin-4-yl)pyrazolo[1,5-a]pyrimidin-5(4H)-one hydrochloride]
28	Cc1nn2c(C3CCNCC3)cc(=O)[nH]c2c1-c1nc(-c2ccccc2OC(F)(F)F)no1 [Example 347, 2-methyl-7-(piperidin-4-yl)-3-{3-[2-(trifluoromethoxy)phenyl]-1,2,4-oxadiazol-5-yl}pyrazolo[1,5-a]pyrimidin-5(4H)-one hydrochloride]
26	O=c1cc(C2CCNCC2)n2ncc(-c3nc(C(F)(F)F)cs3)c2[nH]1 [Example 351, 7-(piperidin-4-yl)-3-[4-(trifluoromethyl)-1,3-thiazol-2-yl]pyrazolo[1,5-a]pyrimidin-5 (4H)-one hydrochloride]
28	O=C(OCC(F)F)c1cnn2c(C3CCNCC3)cc(=O)[nH]c12 [Example 353, 2,2-difluoroethyl 5-oxo-7-(piperidin-4-yl)-4,5-dihydropyrazolo[1,5-a]pyrimidine-3-carboxylate hydrochloride]
27	O=C(OCC(F)(F)F)c1cnn2c(C3CCNCC3)cc(=O)[nH]c12 [Example 354, 2,2,2-trifluoroethyl 5-oxo-7-(piperidin-4-yl)-4,5-dihydropyrazolo[1,5-a]pyrimidine-3-carboxylate hydrochloride]
27	O=C(OCCC(F)(F)F)c1cnn2c(C3CCNCC3)cc(=O)[nH]c12 [Example 355, 3,3,3-trifluoropropyl 5-oxo-7-(piperidin-4-yl)-4,5-dihydropyrazolo[1,5-a]pyrimidine-3-carboxylate hydrochloride]
14	COC(=O)c1cnn2c(C3CCNCC3)cc(=O)[nH]c12 [Example 357, Methyl 5-oxo-7-(piperidin-4-yl)-4,5-dihydropyrazolo[1,5-a]pyrimidine-3-carboxylate hydrochloride]
39	Cc1nc(-c2ccc(C(F)(F)F)cc2)sc1-c1cnn2c(C3CCNCC3)cc(=O)[nH]c12 [Example 369, 3-{4-methyl-2-[4-(trifluoromethyl)phenyl]-1,3-thiazol-5-yl}-7-(piperidin-4-yl)pyrazolo[1,5-a]pyrimidin-5(4H)-one hydrochloride]
30	CCC(=O)c1cnn2c(C3CCNCC3)cc(=O)[nH]c12 [Example 371, 7-(piperidin-4-yl)-3-propanoylpyrazolo[1,5-a]pyrimidin-5(4H)-one hydrochloride]
22	O=c1cc(C2CCNCC2)n2ncc(-c3coc(-c4ccccc4)n3)c2[nH]1 [Example 372, 3-(2-phenyl-1,3-oxazol-4-yl)-7-(piperidin-4-yl)pyrazolo[1,5-a]pyrimidin-5(4H)-one hydrochloride]
30	Cn1nccc1-c1cnn2c(C3CCNCC3)cc(=O)[nH]c12 [Example 375, 3-(1-methyl-1H-pyrazol-5-yl)-7-(piperidin-4-yl)pyrazolo[1,5-a]pyrimidin-5(4H)-one hydrochloride]
32	CC(C)Cc1nc(-c2cnn3c(C4CCNCC4)cc(=O)[nH]c23)no1 [Example 378, 3-(5-Isobutyl-1,2,4-oxadiazol-3-yl)-7-(piperidin-4-yl)pyrazolo[1,5-a]pyrimidin-5(4H)-one hydrochloride]
22	CCCCCCc1nc(-c2cnn3c(C4CCNCC4)cc(=O)[nH]c23)no1 [Example 379, 3-(5-Hexyl-1,2,4-oxadiazol-3-yl)-7-(piperidin-4-yl)pyrazolo[1,5-a]pyrimidin-5(4H)-one hydrochloride]
15	CC(C)=Cc1nc(-c2cnn3c(C4CCNCC4)cc(=O)[nH]c23)no1 [Example 383, 3-[5-(2-Methylprop-1-en-1-yl)-1,2,4-oxadiazol-3-yl]-7-(piperidin-4-yl)pyrazolo[1,5-a]pyrimidin-5 (4H)-one hydrochloride]
26	O=c1cc(C2CCNCC2)n2ncc(-c3noc(C=C4CCCC4)n3)c2[nH]1 [Example 384, 3-[5-(Cyclopentylidenemethyl)-1,2,4-oxadiazol-3-yl]-7-(piperidin-4-yl)pyrazolo[1,5-a]pyrimidin-5 (4H)-one hydrochloride]
14	O=c1cc(C2CCNCC2)n2ncc(-c3noc(C4CCCC4)n3)c2[nH]1 [Example 385, 3-(5-Cyclopentyl-1,2,4-oxadiazol-3-yl)-7-(piperidin-4-yl)pyrazolo[1,5-a]pyrimidin-5(4H)-one hydrochloride]
30	O=c1cc(C2CCNCC2)n2ncc(-c3noc(CC(F)(F)F)n3)c2[nH]1 [Example 388, 7-(Piperidin-4-yl)-3-[5-(2,2,2-trifluoroethyl)-1,2,4-oxadiazol-3-yl]pyrazolo[1,5-a]pyrimidin-5(4H)-one hydrochloride]
27	O=c1cc(C2CCNCC2)n2ncc(-c3noc(C4CC(F)(F)C4)n3)c2[nH]1 [Example 392, 3-(5-(3,3-difluorocyclobutyl)-1,2,4-oxadiazol-3-yl)-7-(piperidin-4-yl)pyrazolo[1,5-a]pyrimidin-5(4H)-one hydrochloride]
